{
  "source": "patent EP0072761B1",
  "about": "“Decarboxylase-inhibiting fluorinated alkane diamine derivatives” (MERRELL TORAUDE ET COMPAGNIE, priority 1981, dated 1983)",
  "target": "T1, Ornithine decarboxylase (ODC) (Rattus norvegicus, UniProt P09057)",
  "T1 construct": "is prepared from the livers of rats which have been injected with thioacetamide; from tissue; host or cells: rat liver (thioacetamide-induced)",
  "T1 sequence (P09057 1-461)": "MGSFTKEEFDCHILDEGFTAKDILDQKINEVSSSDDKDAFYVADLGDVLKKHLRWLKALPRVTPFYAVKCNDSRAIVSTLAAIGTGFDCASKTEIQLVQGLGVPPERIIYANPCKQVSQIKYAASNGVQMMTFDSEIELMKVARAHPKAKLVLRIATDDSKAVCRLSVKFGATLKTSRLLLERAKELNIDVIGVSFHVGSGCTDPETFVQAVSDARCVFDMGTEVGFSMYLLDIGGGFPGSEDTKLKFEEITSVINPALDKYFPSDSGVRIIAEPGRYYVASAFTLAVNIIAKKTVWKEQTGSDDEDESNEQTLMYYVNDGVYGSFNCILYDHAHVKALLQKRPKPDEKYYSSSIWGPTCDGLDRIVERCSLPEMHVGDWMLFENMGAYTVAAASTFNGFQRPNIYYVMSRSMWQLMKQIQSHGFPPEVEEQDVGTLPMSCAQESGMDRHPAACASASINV",
  "experiment": "In vitro time-dependent inhibition of ornithine decarboxylase (14CO2 release from DL-[1-14C]ornithine; Kitz and Wilson analysis)",
  "format": "biochemical, rats",
  "details": "calculated by method of Kitz and Wilson; for ODC τ50: half-life at infinite concentration of inhibitor, rat liver ODC, 37°; for Ki: apparent dissociation constant, ODC from livers of thioacetamide-treated rats, incubated at 37°",
  "description": "The stock solution of ODC is composed of proteins (16 mg/mL), sodium phosphate buffer (30 mM, pH 7.1), dithiothreitol (5 mM) and pyridoxal phosphate (0.1 mM). The specific activity of this stock solution is 0.12 nmol of CO2/min per mg of protein. For a typical experiment 320 µl of this stock solution is mixed at time 0 with 80 µl of a solution of the inhibitor in water and incubated at 37°. At different times 50 pl aliquots are transferred into a 1 mL assay medium containing sodium phosphate (30 mM, pH 7.1), dithiothreitol (5 mM), pyridoxal phosphate (0.1 mM), L-ornithine (0.081 pmol), and DL-[1-^14C] ornithine (0.043 pmol, 58 Ci/mol, Amersham) in a closed vessel in which a filter paper moistered with 50 µl hyamine hydroxide (1 M) is fitted. The reaction is allowed to proceed for 60 min at 37°C and then terminated by addition of 0.5 ml of 40% trichloroacetic acid. After an additional 30 min, the CO2 absorbed on the filter paper is counted in a standard scintillation cocktail.",
  "data": [
    {"smiles": "C=C(CN)CC(N)C(F)F", "note": "(stereo not shown) [E, 1,1-difluoro-2,5-diamino-4-methylene-pentane]", "values": [
      {"measurement": "ODC τ50", "value": 2.2, "unit": "min"}
    ]},
    {"smiles": "NCC(=O)CC(N)CF", "note": "(stereo not shown) [C, 1-fluoro-2,5-diamino-4-oxo-pentane]", "values": [
      {"measurement": "ODC τ50", "value": 1.6, "unit": "min"}
    ]},
    {"smiles": "C=C(CN)CC(N)CF", "note": "(stereo not shown) [B, 1-fluoro-2,5-diamino-4-methylene-pentane]", "values": [
      {"measurement": "ODC τ50", "value": 2.6, "unit": "min"}
    ]},
    {"smiles": "C=C(CN)CC(N)(CF)C(=O)O", "note": "(stereo not shown) [D, 2-fluoromethyl-2,5-diamino-4-methylene-pentanoic acid]", "values": [
      {"measurement": "Ki", "value": 53, "unit": "µM"},
      {"measurement": "ODC τ50", "value": 3.6, "unit": "min"}
    ]},
    {"smiles": "NCC(=O)CC(N)(CF)C(=O)O", "note": "(stereo not shown) [A, 2-fluoromethyl-2,5-diamino-4-oxo-pentanoic acid]", "values": [
      {"measurement": "Ki", "value": 4.8, "unit": "µM"},
      {"measurement": "ODC τ50", "value": 3.1, "unit": "min"}
    ]}
  ]
}
